This note sets out measurements from patent US6294650A, “Inhibition of mammalian telomerase by peptide nucleic acids” (The Board of Regents, University of Texas System, priority 1999, dated 2001).

The subject of series [1] is complementary DNA oligonucleotides. The series is described as follows: Melting temperature of PNA:DNA duplexes, absorbance at 260 nm. Conditions: PNA with complementary DNA, 20 μM each, 1.0 M phosphate pH 7.6. The series is classed as physicochemical. The protocol:
Determinations were done in a volume of 0.5 mL in a capped cuvette. […] Absorbance was recorded from 25° C. to 90° C. in 4° C. or 5° C. increments using a 2 minute equilibration time between each measurement. DNA oligonucleotides used for measuring Tm values, and their complementary PNAs were as follows; [NT] […] ID NO:31) ([…] ID NO:32) (PNAs 7, 17). Melting temperatures were measured (Tm) of duplexes between PNAs and their DNA complements to ensure that the PNAs used in these studies could form duplexes with complementary sequences at the assay temperature of 25° C. DNA oligonucleotides were used because employment of DNA rather than RNA facilitated analysis of the large number of PNAs that required assay. Comparison to RNA:PNA melting temperatures is justified because Tm 's for PNA:DNA and PNA:RNA hybrids are similar.

Series [2] concerns human telomerase. The series is described as follows: TRAPeze telomerase assay, HME50-5 cell lysate preincubated with PNA (PNA scanning). In kind it is biochemical. Conditions: 25° C., 30 min preincubation.
Experimental: The source of telomerase was human immortal primary breast epithelial cell line (HME50-5). Cultured cells (10^5 -10^6) were lysed as recommended in the protocol supplied by Oncor. Cell lysates containing 200 cell equivalents were preincubated at 25° C. for 30 minutes with PNA (0 to 100 μM, diluted in 10 mM Tris pH 8.3 and 10 μg ml^-1 bovine serum albumin (BSA)). PNAs sometime aggregated upon prolonged storage, so PNA stocks were briefly heated to 55° C. prior to addition to assay mixtures to ensure reproducible inhibition. Following preincubation, TRAPeze reaction mixture (20 mM Tris-HCl, pH 8.3, 1.5 mM MgCl2, 63 mM KCl, 0.05% Tween 20, 1 mM EGTA, and 0.01% BSA, 50 μM dNTPs, and primer mix supplied in the kit) was added directly to the mixture of PNA and cell extract. This reaction was incubated at 25° C. for 30 minutes to allow telomerase to elongate the TS primer. […] The tubes were transferred to a PCR thermocycler, and a two-step cycle (30 sec 94° C. and 30 sec 60° C.) was performed 27 times. Samples were analyzed using nondenaturing polyacrylamide gel electrophoresis.
Telomerase products and an internal PCR control were quantitated by phosphorimager analysis (Molecular Dynamics). The lanes were divided into one region encompassing the telomerase products and another including the internal standard signal. The radioisotope density was integrated for each area, and the ratio of telomerase product to internal standard was determined. This value was normalized to a positive control (no PNA added) where the ratio of telomerase products to internal standard was assigned 100% activity. The extent inhibition was plotted against the final PNA concentration used in the preincubation reaction, and these graphs were used to estimate the IC50 values.
These PNAs were incubated with telomerase-containing cell extracts derived from a human immortal primary breast epithelial cell line (HME50-5) and assayed their influence on telomerase activity using the telomere repeat amplification protocol (TRAP) (Holt et al., supra).
Series [3] deals with human telomerase. The series is described as follows: Km app of telomerase for TS primer (TRAP assay with varied TS primer). The series is classed as biochemical. Conditions: TS primer 0 to 60 nM, 30 min at 25° C.; read-out: apparent binding constant, Km app, of telomerase for TS primer. The method, then: Telomerase assays were performed essentially as described above with slight modifications. Both the TS and CX primers (0.1 μg) were placed below the wax barrier and the concentration of TS primer was varied from 0 nM to 60 nM, above the wax barrier, in the reaction mixture. The reaction was allowed to proceed for 30 minutes at 25° C. followed by PCR as described. The products were quantitated as described with telomerase activity relative to control plotted versus the TS primer concentration.
To put the efficiency of inhibition into context, the affinity of the TS primer for telomerase was determined. Primer affinity of telomerase was determined by monitoring the level of telomerase activity as a function of concentration of the TS primer. The TS primer is complementary to only three bases of the RNA template of the hTR, and was not initially expected to bind tightly to telomerase. The TRAP assay was performed as described, except that the concentration of the TS primer above the wax barrier was varied from 0 to 60 nM. The concentration of TS primer below the wax barrier was varied to keep the total concentration constant.

Like-named read-outs stand apart in the source and are kept apart here.

For orientation: IC50 means the concentration needed to halve the response being measured. “PNA 15: PNA, sequence GCCCTTCTCAG (all peptide nucleic acid (PNA))”: the “Tm ° C., Table 2” value in series [1] came out at 56 °C. Besides, in the series on human telomerase [2] (read-out: IC50 (μM), Table 2), the IC50 was found to be 0.5 µM.

On to PNA 4: PNA, sequence GGGTTAGACAA, for which the “Tm ° C., Table 2” value came out at 67 °C in series [1] and 71 °C in series [1] (listed as 4). For the same substance, the IC50 with human telomerase [2] (read-out: IC50 (μM), Table 2) was 0.01 µM; in the series on human telomerase [2] (read-out: IC50 for inhibition of telomerase (text)), 0.01 µM.

What is called Km is the concentration of substrate that gives half-maximal velocity. For the substance “TS primer: oligonucleotide primer that can be extended by telomerase, 5'-AATCCGTCGAGCAGAGTT-3' (further chemistry not given here)”, the Km with human telomerase [3] came to 8 nM.
